According to patent publication US20100305120A1, “COMPOUNDS FOR TREATING MUSCULAR DYSTROPHY” (BIOMARIN IGA LIMITED, priority 2008, published 2010):

System: Utrophin A promoter linked to a luciferase reporter gene
Test: Luciferase reporter assay (murine H2K cells), H2K/mdx/Utro A reporter cell line
Type: cell-based
Settings: 48 h; test compound concentration 0.1 μM; mdx mouse H2K Utrophin A reporter cells; read-out: Activity (luciferase level relative to control)
In short: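 Immortalized mdx mouse H2K myoblasts stably carrying ~5 kb utrophin A promoter–luciferase construct, kept at 33 °C, 10% CO2. Compound added 24 h after plating, typically at 10 μM final, for 48 h; luciferase measured by cell lysis and luminescence.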

Compound	activity at 0.1 µM [%]
CS(=O)(=O)c1ccc(Cn2nc(C(=O)Nc3ccc4c(c3)OCO4)c3c2CCCC3)cc1 [Compound 149, N-(benzo[d][1,3]dioxol-5-yl)-1-(4-(methylsulfonyl)benzyl)-4,5,6,7-tetrahydro-1H-indazole-3-carboxamide]	< 200

Same assay, conditions: 48 h; test compound concentration 0.3 μM; mdx mouse H2K Utrophin A reporter cells; read-out: Activity (luciferase level relative to control)

Compound	activity at 0.3 µM [%]
O=C(Nc1ccc2c(c1)OCO2)c1nn(Cc2ccc3ccccc3c2)c2ccccc12 [Compound 141, N-(benzo[d][1,3]dioxol-5-yl)-1-(naphthalen-2-ylmethyl)-1H-indazole-3-carboxamide]	< 200

Same assay, conditions: 48 h; test compound concentration 1 μM; mdx mouse H2K Utrophin A reporter cells; read-out: Activity (luciferase level relative to control)

Compound	activity at 1 µM [%]
CS(=O)(=O)c1ccc(Cn2nc(C(=O)Nc3ccc4c(c3)OCO4)c3c2CCC3)cc1 [Compound 150, N-(benzo[d][1,3]dioxol-5-yl)-1-(4-(methylsulfonyl)benzyl)-1,4,5,6-tetrahydrocyclopenta[c]pyrazole-3-carboxamide]	< 200

Same assay, conditions: 48 h; test compound concentration 10 μM; mdx mouse H2K Utrophin A reporter cells; read-out: Activity (luciferase level relative to control)

Compound	activity at 10 µM [%]
CS(=O)(=O)c1ccccc1Cn1nc(C(=O)Nc2ccc3c(c2)OCO3)c2ccccc21 [Compound 136, N-(benzo[d][1,3]dioxol-5-yl)-1-(2-(methylsulfonyl)benzyl)-1H-indazole-3-carboxamide]	< 200
O=C(Nc1ccc2c(c1)OCO2)c1nn(Cc2ccc(S(=O)(=O)N3CCOCC3)cc2)c2ccccc12 [Compound 137, N-(benzo[d][1,3]dioxol-5-yl)-1-(4-(morpholinosulfonyl)benzyl)-1H-indazole-3-carboxamide]	201 to 300
Cc1ccc(NC(=O)c2nn(Cc3ccc(C(=O)N(C)C)cc3)c3ccccc23)cc1 [Compound 138, 1-(4-(dimethylcarbamoyl)benzyl)-N-p-tolyl-1H-indazole-3-carboxamide]	201 to 300
CC(C)c1ccc(NC(=O)c2nn(Cc3ccc(C(=O)N(C)C)cc3)c3ccccc23)cc1 [Compound 139, 1-(4-(dimethylcarbamoyl)benzyl)-N-(4-isopropylphenyl)-1H-indazole-3-carboxamide]	< 200
CS(=O)(=O)c1ccc(C(=O)n2nc(C(=O)Nc3ccc4c(c3)OCO4)c3ccccc32)cc1 [Compound 140, N-(benzo[d][1,3]dioxol-5-yl)-1-(4-(methylsulfonyl)benzoyl)-1H-indazole-3-carboxamide]	301 to 400
O=C(Nc1ccc2c(c1)OCO2)c1nn(Cc2ccc(C(=O)N3CCCC3)cc2)c2ccccc12 [Compound 142, N-(benzo[d][1,3]dioxol-5-yl)-1-(4-(pyrrolidine-1-carbonyl)benzyl)-1H-indazole-3-carboxamide]	201 to 300
O=C(Nc1ccc2c(c1)OCCO2)c1nn(Cc2ccc(C(=O)N3CCOCC3)cc2)c2ccccc12 [Compound 143, N-(2,3-dihydrobenzo[b][1,4]dioxin-6-yl)-1-(4-(morpholine-4-carbonyl)benzyl)-1H-indazole-3-carboxamide]	301 to 400
COc1ccc(NC(=O)c2nn(Cc3ccc(C(=O)N4CCOCC4)cc3)c3ccccc23)cc1 [Compound 144, N-(4-methoxyphenyl)-1-(4-(morpholine-4-carbonyl)benzyl)-1H-indazole-3-carboxamide]	301 to 400
O=C(Nc1ccc2c(c1)OCO2)c1nn(Cc2ccon2)c2ccccc12 [Compound 145, N-(benzo[d][1,3]dioxol-5-yl)-1-(isoxazol-3-ylmethyl)-1H-indazole-3-carboxamide]	< 200
CS(=O)(=O)c1ccc(Cn2cc(C(=O)Nc3ccc4c(c3)OCO4)c3ccccc32)cc1 [Compound 146, N-(benzo[d][1,3]dioxol-5-yl)-1-(4-(methylsulfonyl)benzyl)-1H-indole-3-carboxamide]	< 200
CCn1ccc(C(=O)Nc2ccc(Cl)cc2Cl)n1 [Compound 147, N-(2,4-dichlorophenyl)-1-ethyl-1H-pyrazole-3-carboxamide]	< 200
CCN(CC)C(=O)c1ccc(Cn2nc(C(=O)Nc3ccc4c(c3)OCO4)c3ccccc32)cc1 [Compound 151, N-(benzo[d][1,3]dioxol-5-yl)-1-(4-(diethylcarbamoyl)benzyl)-1H-indazole-3-carboxamide]	< 200
CC(C)S(=O)(=O)c1ccc(Cn2nc(C(=O)Nc3ccc4c(c3)OCO4)c3ccccc32)cc1 [Compound 152, N-(benzo[d][1,3]dioxol-5-yl)-1-(4-(isopropylsulfonyl)benzyl)-1H-indazole-3-carboxamide]	< 200
CCc1ccc(Cn2nc(C(=O)Nc3ccc4c(c3)OCO4)c3ccccc32)nc1 [Compound 153, N-(benzo[d][1,3]dioxol-5-yl)-1-((5-ethylpyridin-2-yl)methyl)-1H-indazole-3-carboxamide]	< 200
CC(C)c1nc(Cn2nc(C(=O)Nc3ccc4c(c3)OCO4)c3ccccc32)no1 [Compound 154, N-(benzo[d][1,3]dioxol-5-yl)-1-((5-isopropyl-1,2,4-oxadiazol-3-yl)methyl)-1H-indazole-3-carboxamide]	< 200
CCc1nnc(Cn2nc(C(=O)Nc3ccc4c(c3)OCO4)c3ccccc32)o1 [Compound 155]	< 200
CCS(=O)(=O)c1ccc(Cn2nc(C(=O)Nc3ccc4c(c3)OCO4)c3ccccc32)cc1 [Compound 156, N-(benzo[d][1,3]dioxol-5-yl)-1-(4-(ethylsulphonyl)benzyl)-1H-indazole-3-carboxamide]	201 to 300
CS(=O)(=O)c1ccc(Cn2nc(C(=O)O)c3ccccc32)cc1 [Compound 157, 1-(4-(methylsulphonyl)benzyl)-1H-indazole-3-carboxylic acid]	< 200
CCc1ccc(Cn2nc(C(=O)Nc3ccc4c(c3)OCCO4)c3ccccc32)cc1 [Compound 158, N-(2,3-dihydrobenzo[b][1,4]dioxin-6-yl)-1-(4-ethylbenzyl)-1H-indazole-3-carboxamide]	201 to 300
CCc1ccc(Cn2nc(C(=O)Nc3ccc4c(c3)OC(F)(F)C(F)(F)O4)c3ccccc32)cc1 [Compound 159, 1-(4-ethylbenzyl)-N-(2,2,3,3-tetrafluoro-2,3-dihydrobenzo[b][1,4]dioxin-6-yl)-1H-indazole-3-carboxamide]	< 200
O=C(Nc1ccc2c(c1)OCCO2)c1nn(Cc2ccc(C(=O)N3CCOCC3)cc2)c2ccc(F)cc12 [Compound 160, N-(2,3-dihydrobenzo[b][1,4]dioxin-6-yl)-5-fluoro-1-(4-(morpholine-4-carbonyl)benzyl)-1H-indazole-3-carboxamide]	< 200
O=C(Nc1ccc2c(c1)OC(F)(F)C(F)(F)O2)c1nn(Cc2ccc(C(=O)N3CCOCC3)cc2)c2ccccc12 [Compound 161, 1-(4-(morpholine-4-carbonyl)benzyl)-N-(2,2,3,3-tetrafluoro-2,3-dihydrobenzo[b][1,4]dioxin-6-yl)-1H-indazole-3-carboxamide]	201 to 300
O=C(Nc1ccc2c(c1)OCCO2)c1nn(Cc2ccc(C(=O)N3CCOCC3)cc2)c2cc(F)ccc12 [Compound 162, N-(2,3-dihydrobenzo[b][1,4]dioxin-6-yl)-6-fluoro-1-(4-(morpholine-4-carbonyl)benzyl)-1H-indazole-3-carboxamide]	201 to 300
O=C(Nc1ccc2c(c1)OCCO2)c1nn(Cc2ccc(C(=O)N3CCOCC3)cc2)c2cc(C(F)(F)F)ccc12 [Compound 163, N-(2,3-dihydrobenzo[b][1,4]dioxin-6-yl)-1-(4-(morpholine-4-carbonyl)benzyl)-6-(trifluoromethyl)-1H-indazole-3-carboxamide]	< 200

Same assay, conditions: 48 h; test compound concentration 30 μM; mdx mouse H2K Utrophin A reporter cells; read-out: Activity (luciferase level relative to control)

Compound	activity at 30 µM [%]
CS(=O)(=O)c1ccc(Cn2ccc(C(=O)Nc3ccc4c(c3)OCO4)n2)cc1 [Compound 148, N-(benzo[d][1,3]dioxol-5-yl)-1-(4-(methylsulfonyl)benzyl)-1H-pyrazole-3-carboxamide]	< 200
